Reference: US12583889B2, “Cell penetrating peptides” (Oxford University Innovation Limited, priority 2017, dated 2026)
Marks after values point to notes of the source that are not given here.

How the values were obtained:
human SMN2-gene = experiment: Full-length SMN2 transcript qPCR in tissues of adult SMA mice after intravenous peptide-PMO conjugate; assay type: in vivo
From the text: Smn1tm1Hung/wt; […]; […] Tissues were harvested one week post administration. […] Statistical significance determined by Student'[…]≤0.00005. […] ID NO.151), Exons 7-8 Rev: [NT] ID NO.152). […] [NT] ID NO.154). […] PolJ Forward: [NT] ID NO.155); PolJ Reverse: [NT]

[1] = Urinary kidney toxicity markers KIM-1 and NGAL by ELISA after a single IV dose of peptide-PMO conjugate; assay type: in vivo; settings: 25 mg/kg single IV dose, C57/BL10 female mice
Procedure: Urinary and serum markers of kidney and liver toxicity were measured following a single dose administration of saline or the relevant peptide-PMO conjugate to 8 week old adult C57/BL10 female mice (N=6 per group). A bolus IV (tail vein) injection was administered and urine collected Day 2 and Day 7 after administration. Animals were then scarified prior to necropsy in which kidney, liver, diaphragm, heart, TA, gastric and serum were collected. Urine clinical indicators: KIM-1, NGAL were measured by ELISA (R&D cat #MKM100) with samples diluted to fit within standard curve. Values were normalised to urinary creatinine levels (Harwell) to account for urine protein concentration.
Group 2—25 mg/kg Pip8b4-PMO SMN
Group 3—25 mg/kg DPEP5.17-PMO SMN

[2] = adult SMA mice, 2x15 mg/kg IV approx. 48 hours apart, tissue 7 days post final administration, normalised to saline treated controls, Central Nervous System
[3] = adult SMA mice, 2x15 mg/kg IV approx. 48 hours apart, tissue 7 days post final administration, normalised to saline treated controls, spinal cord

Ac-RXRRBRR FS*RBRXR-B [Peptide 17]
activity in cerebellum and cortex compared with peptide 6 (human SMN2-gene; FIG. 7, 2x15 mg/kg IV 48 hours apart, adult intermediate SMA mice): equivalent or improved activity | level of full length transcript (FLSMN) in all tissues (human SMN2-gene; FIG. 7, 2x15 mg/kg IV 48 hours apart, adult intermediate SMA mice, central spinal cord, peripheral skeletal muscle and liver): > 1 fold | cell penetration in several compartments of the central nervous system and the skeletal muscle compared with currently available peptides 1-7 (human SMN2-gene; Table 3 data): increased | full-length SMN2 transcripts, mean expression level, Brainstem (human SMN2-gene; [2]): 1.2 | full-length SMN2 transcripts, mean expression level, Cerebellum (human SMN2-gene; [2]): 1.19* | full-length SMN2 transcripts, mean expression level, Cortex (human SMN2-gene; [2]): 1.27* | full-length SMN2 transcripts, mean expression level, Liver (human SMN2-gene; adult SMA mice, 2x15 mg/kg IV approx. 48 hours apart, tissue 7 days post final administration, normalised to saline treated controls, Off Target): 3.78 | full-length SMN2 transcripts, mean expression level, Gastroc (human SMN2-gene; adult SMA mice, 2x15 mg/kg IV approx. 48 hours apart, tissue 7 days post final administration, normalised to saline treated controls, Skeletal Muscle (gastrocnemius)): 3.25**** | full-length SMN2 transcripts, mean expression level, Quad (human SMN2-gene; adult SMA mice, 2x15 mg/kg IV approx. 48 hours apart, tissue 7 days post final administration, normalised to saline treated controls, Skeletal Muscle (quadriceps)): 2.68*** | full-length SMN2 transcripts, mean expression level, TA (human SMN2-gene; adult SMA mice, 2x15 mg/kg IV approx. 48 hours apart, tissue 7 days post final administration, normalised to saline treated controls, Skeletal Muscle (tibialis anterior)): 3.00*** | full-length SMN2 transcripts, mean expression level, Cervical (human SMN2-gene; [3]): 1.41* | full-length SMN2 transcripts, mean expression level, Lumbar (human SMN2-gene; [3]): 1.1 | full-length SMN2 transcripts, mean expression level, Thoracic (human SMN2-gene; [3]): 1.39** | increase in cell penetration / exon inclusion compared with the currently available peptide conjugated to the same antisense oligonucleotide (human SMN2-gene; in vivo, Table 3 data, peptide 17 versus peptide 6, peptide 14 versus peptide 2): up to 60.2% | urinary KIM-1 level normalised to creatinine, compared with peptide 6 ([1]; 2 days after administration): far lower | urinary KIM-1 level normalised to creatinine, compared with peptide 6 ([1]; 7 days post administration): lower | urinary NGAL level normalised to creatinine, compared with peptide 6 ([1]; 7 days post administration): lower
